Source: publication PMC8895403, “A Strategy to Select Macrocyclic Peptides Featuring Asymmetric Molecular Scaffolds as Cyclization Units by Phage Display” (Journal of the American Chemical Society, 2022)
Read-outs that look alike come from different tables or passages of the source. Numbered stars: 1 amine (or outer) side, 2 acyl side, 3 side chain; on linkers, the order of the positions; unused ones are H or OH. Bridge positions count the residues as written; N and C are the ends. Square brackets hold non-standard residues; d marks the D form. Ends that are not written are not given here. Peptide text beside a SMILES is read from it. * marks the point of attachment. X1 = COc1ccc(CN([C@@H](C)C(=O)[*:2])[*:1])cc1N[*:3]; X3 = COc1ccc(CO)cc1NC(=O)C*; X2 = O=C(C[*:2])[*:1]

Experiments:
streptavidin [1] = target: T1, streptavidin (Streptomyces avidinii, UniProt P22629); experiment: HABA competition binding assay (competitive ligand-binding analysis); details: for Kd: read-out: Kd,app
Source text: To pinpoint the binding mode of SAV_1–3 variants, we first synthesized the linear precursors and then prepared their modified and cyclized versions (Figure S13). […] To further elucidate the role of the free aldehyde for binding, we additionally prepared SAV_1–3 peptides that were modified with cyclization units bearing an alcohol moiety instead (Figures 6b and S13). […]
In vitro affinity measurements: To determine the affinity of the selected peptides for Streptavidin, a competitive binding experiment was performed similarly to previously described literature procedures.[7] In brief, for the competitive binding experiment, increasing amounts of peptide (final concentration 0.01 – 500 μM in 12.5% ACN + 0.1% TFA in PBS phosphate buffered saline (PBS, 137 mM NaCl, 2.7 mM KCl, 10 mM Na2HPO4, 2 mM […]
Streptavidin monomer (final concentration 1.5 mM/ 40 µM (SAV_1), 33 µM (SAV_2), 32 µM (SAV_3)). The reactions were allowed to reach equilibrium at room temperature (60 min.) and […]
IC50 values were obtained by fitting the average of three measurements to equation 1:
A = A + A500nm,max − A500nm,min (1) […]
where, A500nm is the measured absorbance at unbound peptide concentration, [L], and H is the Hill coefficient (H = 1 assumed for streptavidin-binding peptides). A500nm,min corresponds to the value measured in presence of 1 mM biotin and A500nm,max corresponds to absorbance values measured in absence of the peptide.
The Kd values for SAV_1_mod, SAV_1_cycl, and SAV_2_mod, SAV_1S_mod, and SAV_1S_cycl were obtained from their respective IC50 values using equation 2: […]

streptavidin [2] = target: T1, streptavidin; experiment: Biopanning of phages displaying SAV_1-3 against streptavidin (recovery rates from phage titers); format: binding; details: for recovery rate / retention after biopanning against streptavidin (in words): phages subjected to cyclization conditions, compared with linear and modified
Source text: To independently verify that our strategy selects peptide binders, we first produced phages displaying SAV_1–3. Next, we performed the modification and cyclization reactions as described previously and determined phage titers before and after biopanning against streptavidin for phages featuring the linear precursor, the modified and cyclized peptides (Figure S12, see the Supporting Information for details). Consistent with the selection of peptide binders upon addition of our bifunctional cyclization units, the recovery rates for linear precursors were the lowest for all three peptides (Figure 6A). […] Featuring a reactive aldehyde moiety, this apparently higher affinity of the modified analogue of SAV_2 could be the result of the transient formation of an iminium ion via condensation with either the N-terminal amine or a lysine side chain of streptavidin.
Production of SAV_1-3 displaying bacteriophages: To validate the selection of cyclic peptide binders over their linear, and modified counterparts, phages displaying the peptide sequences of the […] most enriched hits SAV_1, SAV_2 and SAV_3 were panned against streptavidin either in linear, modified or cyclic peptide form. Phage titers pre- and post-streptavidin panning were determined and compared between all the samples.
In brief, 700 μL of densely grown E. coli TG1 overnight cultures harboring the […]
-fd plasmid (SAV_1), […]-fd plasmid (SAV_2) and
-fd plasmid (SAV_3) respectively, were used to inoculate 500 mL 2xYT-medium containing 30 μg/mL chloramphenicol. After incubation overnight (30 °C at 190 rpm) phage particles were purified and all cysteines were reduced with TCEP as described in Section
9. At this point the phage samples were split into 3 fractions of 2.5 mL. One sample was stored at 4 °C as ‘linear phage’ sample, the other two samples were modified with scaffold 3 (SAV_1 and SAV_2) or scaffold 4 (SAV_3) and purified as described in Section 9. […] Phage titers of these samples were determined ( Figure S12A) and all samples were diluted to approximately […] colony forming units using reduction buffer. […]

T1 sequence (P22629 25-183): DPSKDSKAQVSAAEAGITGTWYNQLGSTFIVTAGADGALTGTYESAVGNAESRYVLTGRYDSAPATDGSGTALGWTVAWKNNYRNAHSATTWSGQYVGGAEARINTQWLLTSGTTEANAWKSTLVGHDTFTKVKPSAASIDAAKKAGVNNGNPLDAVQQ

## COc1ccc(CO)cc1NC(=O)CSC[C@H](NC(=O)[C@H](C)NC(=O)[C@@H]1CSCC(=O)Nc2cc(ccc2OC)CN[C@@H](C)C(=O)N[C@@H](Cc2c[nH]c3ccccc23)C(=O)N[C@@H](Cc2c[nH]c3ccccc23)C(=O)N[C@@H]([C@@H](C)O)C(=O)N[C@@H](CC(N)=O)C(=O)N[C@@H](CC(=O)O)C(=O)N[C@@H](Cc2ccccc2)C(=O)N1)C(=O)N[C@@H](C)C(N)=O [cyclic SAV_1] (H-[X1]WWTNDFCAC(X3)A-NH2; linker 1-8 via X2)
Streptavidin [1]; cyclic vs aldehyde-modified form of the same sequence
  factor/fold advantage in Kd,app of cyclic peptide over aldehyde-modified peptide: ~20

## AWWTNDFCA-NH2 [SAV_1S]
Streptavidin [1]; aldehyde-modified peptide (Figure 6b, column 3), >10 μM given where no saturation
  Kd: 5160 ± 590 nM
Streptavidin [1]; cyclic peptide (Figure 6b, column 4), >10 μM given where no saturation
  Kd: 164 ± 78 nM
Streptavidin [1]; linear precursor peptide (Figure 6b, column 1), >10 μM given where no saturation
  Kd: > 10000 nM

## CSCC[C@H](NC(=O)CNC(=O)[C@@H](NC(=O)[C@H](CC(C)C)NC(=O)CNC(=O)[C@@H](NC(=O)[C@H](CC(N)=O)NC(=O)[C@H](CCCNC(=N)N)NC(=O)[C@H](C)N)C(C)C)C(C)C)C(=O)N[C@@H](CS)C(=O)N[C@@H](C)C(N)=O [SAV_3]
Streptavidin [2]
  recovery rate / retention after biopanning against streptavidin (in words): highest levels of retention

## C[C@H](N)C(=O)N[C@@H](Cc1c[nH]c2ccccc12)C(=O)N[C@@H](Cc1c[nH]c2ccccc12)C(=O)N[C@@H](CCC(=O)O)C(=O)N[C@@H](CC(=O)O)C(=O)N[C@@H](CCCNC(=N)N)C(=O)NCC(=O)N1CCC[C@H]1C(=O)N1CCC[C@H]1C(=O)N[C@@H](CS)C(=O)N[C@@H](C)C(N)=O [SAV_2]
Streptavidin [1]; form of the peptide as worded at the place
  affinity for streptavidin in the competition assay (in words): the cyclic peptide did not display any affinity
Streptavidin [2]; phages with modified (aldehyde) peptide, compared with linear and cyclized
  recovery rate after biopanning against streptavidin (in words): highest recovery rates

## C[C@H](N)C(=O)N[C@@H](Cc1c[nH]c2ccccc12)C(=O)N[C@@H](Cc1c[nH]c2ccccc12)C(=O)N[C@H](C(=O)N[C@@H](CC(N)=O)C(=O)N[C@@H](CC(=O)O)C(=O)N[C@@H](Cc1ccccc1)C(=O)N[C@@H](CS)C(=O)N[C@@H](C)C(=O)N[C@@H](CS)C(=O)N[C@@H](C)C(N)=O)[C@@H](C)O [SAV_1]
Streptavidin [2]
  recovery rate / retention after biopanning against streptavidin (in words): highest levels of retention

## COc1ccc2cc1NC(=O)CSC[C@@H](C(=O)N[C@@H](C)C(N)=O)NC(=O)[C@H](Cc1ccccc1)NC(=O)[C@H](CC(=O)O)NC(=O)[C@H](CC(N)=O)NC(=O)[C@H]([C@@H](C)O)NC(=O)[C@H](Cc1c[nH]c3ccccc13)NC(=O)[C@H](Cc1c[nH]c3ccccc13)NC(=O)[C@H](C)NC2 [cyclic SAV_1S] (H-[X1]WWTNDFCA-NH2; linker 1-8 via X2)
Streptavidin [1]; cyclic peptide
  Kd: 164 ± 78 nM
